From ChEMBL document CHEMBL1146098, “Synthesis and characterization of 3-arylquinazolinone and 3-arylquinazolinethione derivatives as selective estrogen receptor beta modulators” (J Med Chem, 2006) come the findings set out here.

Assay [1] deals with T1, Estrogen receptor beta (Homo sapiens, UniProt Q92731).
Assay [2] addresses T2, Estrogen receptor (Homo sapiens, UniProt P03372).
T2 sequence (P03372 whole entry): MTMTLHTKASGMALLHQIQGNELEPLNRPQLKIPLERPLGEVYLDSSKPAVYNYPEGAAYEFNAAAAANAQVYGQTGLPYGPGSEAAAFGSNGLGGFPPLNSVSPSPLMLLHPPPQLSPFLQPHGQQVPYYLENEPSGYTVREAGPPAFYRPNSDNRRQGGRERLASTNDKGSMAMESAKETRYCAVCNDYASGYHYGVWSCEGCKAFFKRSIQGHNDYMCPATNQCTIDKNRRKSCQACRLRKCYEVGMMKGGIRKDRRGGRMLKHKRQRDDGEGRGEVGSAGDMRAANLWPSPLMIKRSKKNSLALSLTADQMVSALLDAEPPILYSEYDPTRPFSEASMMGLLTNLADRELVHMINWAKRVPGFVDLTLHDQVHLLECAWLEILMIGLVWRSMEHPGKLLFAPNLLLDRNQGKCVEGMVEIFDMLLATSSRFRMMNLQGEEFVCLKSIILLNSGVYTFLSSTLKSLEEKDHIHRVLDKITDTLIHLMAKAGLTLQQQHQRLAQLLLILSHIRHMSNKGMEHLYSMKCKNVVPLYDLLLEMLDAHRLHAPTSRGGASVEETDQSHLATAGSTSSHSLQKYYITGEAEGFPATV
Description: Displacement of [3H]estrone from ER alpha

Assay [3] has as its target T1, Estrogen receptor beta. The source holds these as a separate data set.
Description: Inhibition of ER beta-mediated transactivation of ERE in HeLa cell luciferase assay

T1 sequence (Q92731 whole entry): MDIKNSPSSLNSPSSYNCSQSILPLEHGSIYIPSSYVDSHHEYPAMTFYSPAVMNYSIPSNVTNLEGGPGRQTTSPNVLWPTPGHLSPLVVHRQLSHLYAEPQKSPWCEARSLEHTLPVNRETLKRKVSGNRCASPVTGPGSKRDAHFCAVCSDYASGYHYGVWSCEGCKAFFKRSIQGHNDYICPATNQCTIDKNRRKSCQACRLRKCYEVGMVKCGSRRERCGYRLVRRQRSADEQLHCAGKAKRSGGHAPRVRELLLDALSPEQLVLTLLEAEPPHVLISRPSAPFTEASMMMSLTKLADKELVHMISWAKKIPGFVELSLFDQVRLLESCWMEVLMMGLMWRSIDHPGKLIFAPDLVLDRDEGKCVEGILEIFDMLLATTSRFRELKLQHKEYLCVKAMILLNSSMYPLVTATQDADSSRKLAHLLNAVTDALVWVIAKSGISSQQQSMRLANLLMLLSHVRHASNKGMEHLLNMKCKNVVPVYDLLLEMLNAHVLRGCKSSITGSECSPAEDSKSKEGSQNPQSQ

What is called IC50 is the point on the concentration scale where inhibition reaches its midpoint. High values mean weaker potency, low ones greater potency. In turn, `CCOc1cc(O)cc2ncn(-c3ccc(O)cc3)c(=O)c12` returned an IC50 in assay [1] of 44.3 µM.
As usually defined, the EC50 is the midpoint of the concentration-response curve. A higher EC50 goes with lower potency in that assay. For `O=c1c2c(O)cc(O)cc2ncn1-c1cccc(O)c1`, the figures for the concentration for half-maximal inhibition (IC50) in assay [2] and in assay [1] were 43.8 µM and 3.84 µM, respectively. This molecule also displayed a concentration giving a half-maximal response (EC50) in assay [3] of 904 nM.
The matching figures for `CCc1nc2cc(O)cc(O)c2c(=O)n1-c1ccc(O)cc1`: 19.4 µM, 5.75 µM and 1260 nM.
Regarding `CC(C)c1nc2cc(O)cc(O)c2c(=O)n1-c1ccc(O)cc1`, the IC50 in assay [2] came to 70.4 µM; in assay [1], 48.1 µM.
`Cc1cc(O)ccc1-n1cnc2cc(O)cc(O)c2c1=O`: the values for the IC50 in assay [2] and in assay [1] were 4.38 µM and 0.422 µM, respectively. In assay [3], the 50% effective concentration (EC50) was 111 nM.
The matching figures for `O=c1c2c(O)cc(O)cc2ncn1-c1ccc(O)c(Cl)c1`: 55 µM, 7.21 µM and 1180 nM.
The matching figures for `CCc1cc(O)cc2ncn(-c3ccc(O)cc3)c(=O)c12`: 13.2 µM, 0.265 µM and 62 nM.
Regarding `O=c1c2ccc(O)cc2ncn1-c1ccc(O)cc1`, the IC50 in assay [2] is 53.6 µM; in assay [1] it was 8.61 µM. In assay [3], a half-maximal effect (EC50) was put at 961 nM.
Regarding `CCCc1c(O)cc2ncn(-c3ccc(O)cc3)c(=O)c2c1O`, the IC50 was 10.6 µM in assay [2] and 7.3 µM in assay [1].
Take `Oc1ccc(-n2cnc3cc(O)cc(O)c3c2=S)nc1`: the half-inhibitory concentration (IC50) in assay [2] turned out to be 27.6 µM; in assay [1], 0.515 µM. This molecule came in with an EC50 in assay [3] of 173 nM.
For `COC(=O)c1cc(O)cc2ncn(-c3ccc(O)cc3)c(=O)c12`, in that order: 81.3 µM, 9.54 µM and 9410 nM.
`C=Cc1cc(O)cc2ncn(-c3ccc(O)cc3)c(=O)c12` registered an EC50 in assay [3] of 750 nM. This molecule came in with a 50% inhibitory concentration (IC50) in assay [1] of 17 µM.
Take `O=c1c2c(O)cc(O)c(I)c2ncn1-c1ccc(O)cc1`: the response in assay [3] was half-maximal at 593 nM (EC50). For the same molecule, the IC50 in assay [1] was determined as 4.08 µM.
As to `O=c1c2c(O)cc(O)cc2ncn1-c1ccc(O)cc1`, the figures for the IC50 in assay [2] and in assay [1] were 11.1 µM and 0.179 µM, respectively. In addition, the concentration for a half-maximal effect (EC50) in assay [3] was found to be 76 nM.
The matching figures for `Cc1nc2cc(O)cc(O)c2c(=O)n1-c1ccc(O)cc1`: 33.2 µM, 11.4 µM and 1580 nM.
Consider `N#Cc1cc(O)cc2ncn(-c3ccc(O)cc3)c(=O)c12`, for which, in assay [3], a half-maximal response (EC50) required 7580 nM. Also, in assay [1], half-maximal inhibition (IC50) was put at 73.7 µM.
As for `CCc1cc(O)cc2ncn(-c3ccc(O)cc3)c(=S)c12`, the IC50 in assay [2] was 2.26 µM; in assay [1] it was 0.156 µM. In assay [3], this molecule had an EC50 of 53 nM.
For `O=c1c2c(O)cc(O)cc2ncn1-c1ccc(O)cc1Cl`, in that order: 6.25 µM, 0.263 µM and 251 nM.
The matching figures for `Cc1cc(-n2cnc3cc(O)cc(O)c3c2=S)ccc1O`: 2.85 µM, 0.658 µM and 160 nM.
Take `Nc1cc(O)cc2ncn(-c3ccc(O)cc3)c(=O)c12`: the IC50 in assay [2] was 15.5 µM; in assay [1], 8.24 µM. Besides, a half-maximal response in assay [3] (EC50) required 2060 nM.
In turn, `O=c1c2c(O)c(I)c(O)cc2ncn1-c1ccc(O)cc1` came in with a concentration giving a half-maximal response (EC50) in assay [3] of 1640 nM. For the same molecule, in assay [1], it took 3.97 µM to reach half-maximal inhibition (IC50).
`Cc1cc(O)cc2ncn(-c3ccc(O)cc3)c(=O)c12`: the half-inhibitory concentration (IC50) in assay [2] worked out at 9.63 µM; in assay [1], 0.317 µM. Further, a half-maximal response in assay [3] (EC50) required 136 nM.
As to `O=c1c2c(O)cc(O)cc2[nH]c(=S)n1-c1ccc(O)cc1`, the figures for the 50% inhibitory concentration (IC50) in assay [2] and in assay [1] were 11.1 µM and 6.99 µM, respectively. In assay [3], this molecule showed an EC50 of 1990 nM.
Take `O=c1c2c(O)cc(O)cc2ncn1-c1ccc(O)nc1`: the 50% inhibitory concentration (IC50) in assay [2] turned out to be 66.9 µM; in assay [1], 51.7 µM. In assay [3], this molecule had a concentration for a half-maximal effect (EC50) of 9760 nM.
Take `CCCc1nc2cc(O)cc(O)c2c(=O)n1-c1ccc(O)cc1`: the results for the IC50 in assay [2] and in assay [1] were 5.36 µM and 3.22 µM, respectively.
Take `O=c1c2c(O)cc(O)cc2ncn1-c1ccc(O)cn1`: the half-maximal inhibitory concentration (IC50) stood at 98 µM in assay [2] and 3.53 µM in assay [1]. In addition, in assay [3], the 50% effective concentration (EC50) was determined as 358 nM.
Molecule `O=c1c2c(O)c(I)c(O)c(I)c2ncn1-c1ccc(O)cc1` had a half-maximal effective concentration (EC50) in assay [3] of 1970 nM. In assay [1], it took 12.3 µM to reach half-maximal inhibition (IC50).
For the molecule `O=c1c2c(O)cc(O)cc2ncn1-c1ccc(O)c(F)c1`, the half-inhibitory concentration (IC50) turned out to be 44.2 µM in assay [2] and 0.65 µM in assay [1]. In assay [3], the response was half-maximal at 117 nM (EC50).
In the case of `COc1cc(O)c2c(=O)n(-c3ccc(O)cc3)c(=S)[nH]c2c1`, the EC50 in assay [3] was 3840 nM. In assay [1], this molecule registered an IC50 of 72.8 µM.
Turning to `O=c1[nH]c2cc(O)cc(O)c2c(=O)n1-c1ccc(O)cc1`, the IC50 in assay [2] is 70.3 µM; in assay [1] it was 9.38 µM. Further, in assay [3], the response was half-maximal at 1310 nM (EC50).
With `CCCCc1nc2cc(O)cc(O)c2c(=O)n1-c1ccc(O)cc1`, the results for the IC50 in assay [2] and in assay [1] were 0.178 µM and 0.249 µM, respectively.
Take `Oc1cc(O)c2c(=S)n(-c3ccc(O)c(F)c3)cnc2c1`: the values for the 50% inhibitory concentration (IC50) in assay [2] and in assay [1] were 3.08 µM and 0.102 µM, respectively. For the same molecule, in assay [3], the EC50 was 20 nM.
For `Oc1ccc(-n2cnc3cc(O)cc(O)c3c2=S)cc1`, in that order: 2.64 µM, 0.047 µM and 13 nM.
`O=c1c2c(O)cc(O)cc2nc(Cl)n1-c1ccc(O)cc1` came in with a 50% effective concentration (EC50) in assay [3] of 8780 nM. For the same molecule, the IC50 in assay [1] is 13.4 µM.
As for `O=c1c2c(O)cc(O)cc2ncn1-c1ccc(O)cc1F`, the half-maximal inhibitory concentration (IC50) in assay [2] is 7.48 µM; in assay [1], 0.256 µM. Besides, a half-maximal effect in assay [3] (EC50) was put at 190 nM.
For `O=c1c2c(O)cc(O)cc2ncn1-c1ccccc1`, the IC50 is 75.6 µM in assay [2] and 18.5 µM in assay [1]. The molecule further yielded an EC50 in assay [3] of 1720 nM.
With `O=c1c2c(OS(=O)(=O)C(F)(F)F)cc(O)cc2ncn1-c1ccc(O)cc1`, it took 3800 nM to reach a half-maximal effect in assay [3] (EC50). For the same molecule, the IC50 in assay [1] turned out to be 12 µM.
With `COc1cc(O)c2c(=O)n(-c3ccc(O)cc3)cnc2c1`, the IC50 in assay [2] is 26 µM; in assay [1], 9.53 µM. This molecule registered an EC50 in assay [3] of 8510 nM.
As for `Cc1cc(-n2cnc3cc(O)cc(O)c3c2=O)ccc1O`, the figures for the concentration for half-maximal inhibition (IC50) in assay [2] and in assay [1] were 34.6 µM and 7.49 µM, respectively. Moreover, the response in assay [3] was half-maximal at 1250 nM (EC50).
`Cc1cc(O)cc2ncn(-c3ccc(O)cc3)c(=S)c12`: the values for the half-maximal inhibitory concentration (IC50) in assay [2] and in assay [1] were 1.75 µM and 0.079 µM, respectively. In addition, in assay [3], the EC50 amounted to 222 nM.
The matching figures for `O=c1c2c(CO)cc(O)cc2ncn1-c1ccc(O)cc1`: 0.121 µM, 0.024 µM and 4460 nM.
The matching figures for `Cc1c(O)cc(O)c2c(=O)n(-c3ccc(O)cc3)cnc12`: 15.3 µM, 1.27 µM and 8870 nM.
In turn, `COC(=O)c1cc(OC(C)=O)cc2ncn(-c3ccc(OC(C)=O)cc3)c(=S)c12` came in with a concentration for a half-maximal effect (EC50) in assay [3] of 11300 nM.
`C=C(C)c1cc(O)cc2ncn(-c3ccc(O)cc3)c(=O)c12`: the half-maximal inhibitory concentration (IC50) in assay [2] stood at 44 µM; in assay [1] it was 2.3 µM. Also, in assay [3], the EC50 was 729 nM.
`O=c1c2ccc(O)cc2nc(-c2ccc(O)cc2)n1-c1ccc(O)cc1`: the IC50 stood at 48.5 µM in assay [2] and 441 µM in assay [1].
On to `O=c1c2c(-c3ccccc3)cc(O)cc2ncn1-c1ccc(O)cc1`, for which the IC50 in assay [2] amounted to 102 µM; in assay [1], 30.7 µM. The same molecule had a concentration for a half-maximal effect (EC50) in assay [3] of 11700 nM.
Regarding `COc1cc(O)cc2ncn(-c3ccc(O)cc3)c(=O)c12`, the half-maximal effective concentration (EC50) in assay [3] turned out to be 8510 nM.
Take `Oc1ccc(-c2coc3cc(O)cc(O)c3c2=S)cc1` [THIOGENISTEIN]: the IC50 in assay [2] is 55.9 µM; in assay [1], 1.34 µM. The molecule also showed a concentration for a half-maximal effect (EC50) in assay [3] of 14 nM.
